Measurements as given in the supplement of paper PMC10307832.

What was measured:
Test in all cases: relative viability (nuclei count vs DMSO), 5 days (fraction); higher = more cells survive
Serdemetan + Lapatinib = compound: c1ccc2c(CCNc3ccc(Nc4ccncc4)cc3)c[nH]c2c1 [Serdemetan] + CS(=O)(=O)CCNCc1ccc(-c2ccc3ncnc(Nc4ccc(OCc5cccc(F)c5)c(Cl)c4)c3c2)o1 [Lapatinib] (partner 2 µM)
In short: (§1)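 Lung cancer cell lines were seeded in 1536-well plates and dosed by pin tool the next day, with either a single drug or a fixed anchor-drug dose combined with five library-drug doses (not always all listed) spaced in √10 steps. Five days later, one step fixed the cells and stained their nuclei (final 0.05% Triton X-100, 1% formaldehyde, 1 ug/ml Hoechst), and nuclei were counted on 4× images. Relative viability is the nuclei count in treated wells divided by the count in vehicle wells, and each value is the median of duplicate plates.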

Serdemetan + Pemetrexed = compound: c1ccc2c(CCNc3ccc(Nc4ccncc4)cc3)c[nH]c2c1 [Serdemetan] + Nc1nc2[nH]cc(CCc3ccc(C(=O)N[C@@H](CCC(=O)O)C(=O)O)cc3)c2c(=O)[nH]1 [Pemetrexed] (partner 0.2 µM)
In short: as §1

Selisistat + Foretinib = compound: C1CC(C2=C(C1)C3=C(N2)C=CC(=C3)Cl)C(=O)N [Selisistat] + COc1cc2c(Oc3ccc(NC(=O)C4(C(=O)Nc5ccc(F)cc5)CC4)cc3F)ccnc2cc1OCCCN1CCOCC1 [Foretinib] (partner 0.25 µM)
In short: as §1

Serdemetan + OSI-027 = compound: c1ccc2c(CCNc3ccc(Nc4ccncc4)cc3)c[nH]c2c1 [Serdemetan] + COc1cccc2cc(-c3nc([C@H]4CC[C@H](C(=O)O)CC4)n4ncnc(N)c34)[nH]c12 [OSI-027] (partner 0.5 µM)
In short: as §1

Row | Cell Line | relative viability (Serdemetan + Lapatinib; first compound 0.04 µM) | relative viability (Serdemetan + Lapatinib; first compound 0.1265 µM) | relative viability (Serdemetan + Lapatinib; first compound 0.4 µM) | relative viability (Serdemetan + Lapatinib; first compound 1.265 µM) | relative viability (Serdemetan + Lapatinib; first compound 4 µM) | relative viability (Serdemetan + Pemetrexed; first compound 0.04 µM) | relative viability (Serdemetan + Pemetrexed; first compound 0.1265 µM) | relative viability (Serdemetan + Pemetrexed; first compound 0.4 µM) | relative viability (Serdemetan + Pemetrexed; first compound 4 µM) | relative viability (Selisistat + Foretinib; first compound 0.4 µM) | relative viability (Selisistat + Foretinib; first compound 1.265 µM) | relative viability (Selisistat + Foretinib; first compound 4 µM) | relative viability (Selisistat + Foretinib; first compound 12.65 µM) | relative viability (Selisistat + Foretinib; first compound 40 µM) | relative viability (Serdemetan + OSI-027; first compound 0.04 µM) | relative viability (Serdemetan + OSI-027; first compound 0.1265 µM) | relative viability (Serdemetan + OSI-027; first compound 0.4 µM) | relative viability (Serdemetan + OSI-027; first compound 1.265 µM) | relative viability (Serdemetan + OSI-027; first compound 4 µM) | relative viability (Serdemetan + Pemetrexed; first compound 1.265 µM)
1 | NCI-H1666 | 0.853 | 0.656 | 0.613 | 0.573 | 0.498 | 0.795 | 0.87 | 0.786 | 0.675 | 0.993 | 0.993 | 0.927 | 0.943 | 0.858 | 0.898 | 0.887 | 0.847 | 0.667 | 0.771 | –
2 | NCI-H1734 | 0.855 | – | 0.833 | 0.0959 | 0.195 | 0.44 | 0.396 | 0.405 | 0.14 | 0.956 | 0.822 | 0.868 | 0.889 | 0.815 | 0.586 | 0.523 | 0.554 | 0.138 | 0.196 | 0.171
3 | NCI-H1755 | 0.984 | 1.01 | 0.989 | 0.548 | 0.714 | 0.575 | 0.4 | 0.539 | 0.418 | 0.985 | 1.04 | 0.948 | 0.923 | 0.977 | 0.725 | 0.687 | 0.686 | 0.563 | 0.568 | 0.512
4 | NCI-H1793 | 0.644 | 0.679 | 0.637 | 0.38 | 0.625 | 0.864 | 0.831 | 0.616 | 0.431 | 0.386 | 0.681 | – | 0.724 | 0.528 | 0.385 | 0.251 | 0.236 | 0.186 | 0.179 | 0.419
5 | NCI-H1915 | 0.967 | 0.995 | 1.03 | 0.955 | 0.965 | 0.52 | 0.517 | 0.493 | 0.489 | 1.11 | 1.05 | 1.14 | 1.06 | 1.18 | 0.683 | 0.688 | 0.586 | 0.362 | 0.566 | 0.491
6 | NCI-H1944 | 0.788 | 0.7 | 0.768 | – | 0.494 | 0.581 | 0.599 | 0.741 | 0.476 | 0.948 | 0.854 | – | 0.857 | 0.808 | 0.435 | 0.42 | 0.394 | 0.331 | 0.379 | 0.469
7 | NCI-H1975 | 0.837 | 0.855 | 0.882 | 0.837 | 1.13 | 0.279 | 0.3 | 0.312 | 0.295 | 0.983 | 0.84 | 0.896 | 0.815 | 0.706 | 0.851 | 0.753 | 0.775 | – | 0.711 | 0.309
8 | NCI-H1993 | 0.873 | 0.861 | 0.75 | – | 0.768 | 0.577 | 0.581 | 0.591 | 0.546 | 0.745 | 0.798 | 0.696 | 0.949 | 0.707 | 0.552 | 0.614 | 0.665 | 0.521 | 0.533 | 0.589
9 | NCI-H2009 | 0.851 | 1.03 | 0.889 | 0.822 | 0.691 | 1.03 | 0.89 | 1.1 | 0.892 | 1.33 | 1.17 | – | 1.22 | 1.17 | 0.653 | 0.678 | 0.628 | 0.55 | 0.466 | 0.895
10 | NCI-H2023 | 0.709 | 0.861 | 0.742 | 0.387 | 0.253 | 0.213 | 0.223 | 0.227 | 0.217 | 0.879 | 0.81 | 0.966 | 0.873 | 0.904 | 0.395 | 0.383 | 0.324 | 0.255 | 0.191 | 0.206
11 | NCI-H2085 | 0.814 | 0.779 | 0.74 | 0.649 | 0.501 | 0.91 | 0.818 | 0.773 | 0.642 | 0.971 | 0.98 | 0.873 | 0.881 | 0.884 | 0.701 | 0.702 | 0.593 | 0.61 | 0.764 | 0.798
12 | NCI-H2087 | 1.06 | 0.974 | 1.1 | 0.641 | 0.508 | 0.704 | 0.611 | 0.643 | 0.28 | 1.09 | 1.12 | – | 1.01 | 1.05 | 0.548 | 0.641 | 0.573 | 0.324 | 0.241 | 0.404
13 | NCI-H2126 | 0.736 | 0.724 | 0.78 | 0.645 | 0.844 | 0.671 | 0.707 | 0.579 | 0.78 | 1.27 | 1.16 | 1.17 | 1.32 | 1.16 | 0.7 | 0.757 | 0.611 | 0.574 | 0.625 | 0.601
14 | NCI-H2170 | 0.322 | 0.298 | 0.285 | 0.268 | 0.273 | 0.231 | 0.288 | 0.248 | 0.284 | 1.11 | 1 | 0.943 | 1.03 | 1.08 | 0.686 | 0.737 | 0.635 | 0.367 | 0.73 | 0.266
15 | NCI-H2228 | 1.07 | 1.03 | 0.984 | 0.431 | 0.391 | 0.349 | 0.364 | 0.325 | 0.253 | 0.979 | 0.931 | 0.685 | 0.843 | 0.916 | 0.526 | 0.523 | 0.464 | 0.17 | 0.221 | 0.312
16 | NCI-H2347 | 0.8 | 0.938 | 0.781 | 0.812 | 0.872 | 0.498 | 0.429 | 0.42 | 0.445 | 0.918 | 1.04 | – | 1.06 | 0.989 | 0.412 | 0.501 | 0.431 | 0.4 | 0.258 | –
17 | NCI-H2405 | 1 | 1.06 | 1.17 | 1.07 | 0.963 | 1.04 | 1.02 | 1.1 | 0.983 | 1.06 | 1.09 | 1.07 | 1.06 | 1.02 | 0.591 | 0.602 | 0.657 | 0.622 | 0.594 | 0.609
